# Experimental data taken from article PMC6753678, “Fueling Open Innovation for Malaria Transmission-Blocking Drugs: Hundreds of Molecules Targeting Early Parasite Mosquito Stages” (Frontiers in Microbiology, 2019).
# Like-named read-outs stand apart in the source and are kept apart here.
# What was measured:
# [1] = system: 3D7-strain P. falciparum asexual parasites; assay: P. falciparum asexual growth inhibition assay (Pf GIA); type: cell-based, Plasmodium falciparum; conditions: dose response confirmation; read-out: Pf asexual growth inhibition assays IC50
# Outline: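 0.25% parasitemia, 2% Hct, RPMI/HEPES/hypoxanthine/5% Albumax; compound dose response, 72 h, 37°C, 5% CO2, 5% O2, 90% N2. Freeze-thaw, then LDH assay, A650. % inhibition vs chloroquine (50 μM)/DMSO, mean of 3 independent runs.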
# [2] = system: P. berghei ookinete development; conditions: for Is compound selective in assay? Pb ODA active?: 1: YES, 0: NO; for % inhibition, Replicate A / % inhibition, Replicate B: primary screen at 1 μM
# [3] = system: HepG2 cells; conditions: ref Almela et al 2016, cited from earlier work
# [4] = system: P. falciparum late stage (stages IV-V) gametocytes; design: method as in Almela et al 2016; conditions: ref Almela et al 2016, read-out: Pf GCT ATP IC50, cited from earlier work
# [5] = system: HepG2 cells; assay: HepG2 cytotoxicity assay; conditions: for IC50: read-out: HepG2 cytotoxicity assay IC50, dose response confirmation
# Outline: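 Here viability after a 48 h compound incubation (37°C, humidified 5% CO2) is measured by fluorescence and expressed as percent inhibition, with doxorubicin at 50 μM and DMSO as the bounding controls.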
# [6] = system: P. falciparum late stage (stages IV-V) gametocytes; assay: P. falciparum late stage gametocyte ATP depletion assay (Pf GC-ATP); conditions: 1: YES, 0: NO
# [7] = read-out: Pb ODA IC50, this manuscript
# [8] = read-out: Pb Ookinete development assay IC50, dose response confirmation
# [9] = HepG2 values of the three screens unified
# [10] = HepG2 data listed with Pf GCT ATP screen
# [11] = P. falciparum late stage gametocyte ATP assay
# [12] = unified HepG2 value across the three screens
# [13] = reported with the Pf GCT ATP screen
# [14] = P. falciparum late stage gametocyte ATP assay, TCAMS screen
# [15] = HepG2 cytotoxicity unified across screens, >25 set to 25.00
# [16] = >10-fold selectivity over cytotoxicity
Structure (SMILES),Is compound selective in assay? Pf GC-ATP active? [6],"HepG2 cytoxicity [3, 13] [µM]","IC50 [4, 14] [µM]","Unified cytotox [5, 15] [µM]","Is compound selective in assay? Pf GC-ATP active? [6, 16]",other results
Cn1nc(C(F)(F)F)c(-c2ccc(Br)cc2)c1NC(=O)Cc1ccccc1F [TCMDC-123792],1 (1: YES),–,–,–,–,"IC50 [1]: 0.206 µM; Is compound selective in assay? Pb ODA active? [2]: 1 (1: YES); % inhibition, Replicate A [2]: 45.62%; % inhibition, Replicate B [2]: 73.81%; IC50 [2, 7]: 2.12 µM; IC50 [2, 8]: 2.12 µM; HepG2 cytoxicity (Pf GCT ATP screen) [3]: >25 µM; IC50 [4]: 1.79 µM; Unified cytotox [5, 9]: 100.00 µM; IC50 [5]: 100 µM"
CN1c2ccc([N+](=O)[O-])cc2C(C)(C)C12C=Cc1cc(Br)cc([N+](=O)[O-])c1O2 (stereo not drawn) [TCMDC-124178],1 (1: YES),–,–,–,–,"IC50 [1]: 0.197 µM; Is compound selective in assay? Pb ODA active? [2]: 1 (1: YES); % inhibition, Replicate A [2]: 65.23%; % inhibition, Replicate B [2]: 65.28%; IC50 [2, 7]: 1.6 µM; IC50 [2, 8]: 1.6 µM; HepG2 cytoxicity (Pf GCT ATP screen) [3]: >25 µM; IC50 [4]: 1.09 µM; HepG2 cytoxicity (Pb ODA, this manuscript) [5]: 29.17 µM; Unified cytotox [5, 9]: 29.17 µM; IC50 [5]: 29.2 µM"
Cl.Cl.c1ccc2c(NCCCCCCNc3c4ccccc4nc4ccccc34)c3ccccc3nc2c1 [TCMDC-124285],1 (1: YES),–,–,–,–,"IC50 [1]: 0.532 µM; Is compound selective in assay? Pb ODA active? [2]: 0 (0: NO); % inhibition, Replicate A [2]: 78.92%; % inhibition, Replicate B [2]: 53.92%; IC50 [2, 7]: 1.5 µM; IC50 [2, 8]: 1.5 µM; HepG2 cytoxicity (Pf GCT ATP screen) [3]: 7 µM; IC50 [4]: 0.25 µM; HepG2 cytoxicity (Pb ODA, this manuscript) [5]: 8.13 µM; Unified cytotox [5, 9]: 7.56 µM; IC50 [5]: 8.13 µM"
Cc1ccc(C)c(CC(=O)N2CCC(n3c(C)nc4ccc(F)cc43)CC2)c1 [TCMDC-124790],1 (1: YES),–,–,–,–,"IC50 [1]: 0.252 µM; Is compound selective in assay? Pb ODA active? [2]: 1 (1: YES); % inhibition, Replicate A [2]: 55.29%; % inhibition, Replicate B [2]: 63.09%; IC50 [2, 7]: 3.66 µM; IC50 [2, 8]: 3.66 µM; HepG2 cytoxicity (Pf GCT ATP screen) [3]: >25 µM; IC50 [4]: 0.92 µM; HepG2 cytoxicity (Pb ODA, this manuscript) [5]: 57.54 µM; Unified cytotox [5, 9]: 57.54 µM; IC50 [5]: 57.5 µM"
COc1cccc(CC(=O)N2CCC(n3c(C)nc4ccc(C)cc43)CC2)c1 [TCMDC-124791],1 (1: YES),–,–,–,–,"IC50 [1]: 0.098 µM; Is compound selective in assay? Pb ODA active? [2]: 1 (1: YES); % inhibition, Replicate A [2]: 79.91%; % inhibition, Replicate B [2]: 77.59%; IC50 [2, 7]: 1.12 µM; IC50 [2, 8]: 1.12 µM; HepG2 cytoxicity (Pf GCT ATP screen) [3]: >25 µM; IC50 [4]: 0.47 µM; Unified cytotox [5, 9]: 100.00 µM; IC50 [5]: 100 µM"
Cc1[nH]c2ccccc2c1C(=O)C(C)Sc1n[nH]c(-c2ccccc2Br)n1 (stereo not drawn) [TCMDC-125114],1 (1: YES),–,–,–,–,"IC50 [1]: 0.057 µM; Is compound selective in assay? Pb ODA active? [2]: 1 (1: YES); % inhibition, Replicate A [2]: 114.44%; % inhibition, Replicate B [2]: 73.49%; IC50 [2, 7]: 0.17 µM; IC50 [2, 8]: 0.174 µM; HepG2 cytoxicity (Pf GCT ATP screen) [3]: 49.31 µM; IC50 [4]: 0.67 µM; Unified cytotox [5, 9]: 74.66 µM; IC50 [5]: 100 µM"
SC(=Nc1ccc2c(c1)OCCO2)NN=Cc1ccccn1 [TCMDC-132009],0 (0: NO),–,–,–,–,"HepG2 cytoxicity [3, 10]: 3.28 µM; IC50 [4, 11]: 0.83 µM; Unified cytotox [5, 12]: 3.28 µM"
COc1ccc(CCNc2nc(NCc3ccccc3)c3cc(OC)c(OC)cc3n2)cc1OC [TCMDC-132017],0 (0: NO),–,–,–,–,"HepG2 cytoxicity [3, 10]: 4.58 µM; IC50 [4, 11]: 5.6 µM; Unified cytotox [5, 12]: 4.58 µM"
COc1cc2c(c(Cl)c1OC)CCN(C(=O)C(F)(F)F)CC2c1ccccc1 (stereo not drawn) [TCMDC-132071],–,>25,1.95,25.00,1 (1: YES),–
Fc1ccc2[nH]c(-c3ccc(-c4ccc(CNCCN5CCNCC5)cc4)s3)nc2c1.O=C(O)C(F)(F)F [TCMDC-132869],–,>25,0.53,25.00,1 (1: YES),–
Nc1ncc(-c2ccc3nccc(-c4ccncc4)c3c2)cc1S(=O)(=O)N1CCCCC1 [TCMDC-134265],–,>25,2.07,25.00,1 (1: YES),–
COc1cccc(Nc2c(C(N)=O)cnc3ccc(-c4ccc([S+](C)[O-])cc4)cc23)c1.O=C(O)C(F)(F)F (stereo not drawn) [TCMDC-135184],–,>25,1.43,25.00,1 (1: YES),–
COc1cc(NC(=O)c2sc(-c3ccc(Cl)cc3)cc2NC(=O)c2cccnc2)ccc1OCCN1CCCC1 [TCMDC-135397],–,>25,0.61,25.00,1 (1: YES),–
Cc1ccc(-n2c(C)nc3c(Nc4ccc(-c5ccncc5)cc4)ncnc32)c(C)c1 [TCMDC-136289],–,>25,0.53,25.00,1 (1: YES),–
CS(=O)(=O)c1cccc(-c2cnc3[nH]cc(-c4cccc(CCN)c4)c3c2)c1 [TCMDC-136307],–,>25,0.47,25.00,1 (1: YES),–
CCn1ncc2c(NC3CCOCC3)c(CNC(=O)c3ccnn3C)c(C)nc21 [TCMDC-136560],–,>25,1.64,25.00,1 (1: YES),–
Cl.Ic1cc(CNC2CCCCC2)ccc1OCc1cccc(COc2ccc(CNC3CCCCC3)cc2I)c1 [TCMDC-137261],–,>25,0.33,25.00,1 (1: YES),–
COc1ccc2nc3cc(Cl)ccc3c(NCCCCCCNc3c4ccc(Cl)cc4nc4ccc(OC)cc34)c2c1.Cl.Cl.Cl.Cl [TCMDC-137503],–,>25,0.05,25.00,1 (1: YES),–
CC(C)CCNC(=N)Nc1ccc(OCCCCCOc2ccc(NC(=N)NCCC(C)C)cc2)cc1 [TCMDC-137614],–,>25,0.51,25.00,1 (1: YES),–
CC(C)CCNC(=N)Nc1ccc(OCCCOc2ccc(NC(=N)NCCC(C)C)cc2)cc1 [TCMDC-137615],–,>25,0.29,25.00,1 (1: YES),–
CC(=NNC(=S)NCCc1ccccn1)c1ccccn1 [TCMDC-137895],–,>25,1.49,25.00,1 (1: YES),–
COc1cc2nc(NCC3CCN(c4nc(N)c5cc(OC)c(OC)cc5n4)CC3)nc(N)c2cc1OC [TCMDC-138723],–,>25,1.42,25.00,1 (1: YES),–
CCN(CC)Cc1cc(Nc2c3ccc(Cl)cc3nc3cccc(OC)c23)ccc1O.Cl [TCMDC-139222],–,>25,1,25.00,1 (1: YES),–
N=C(N)Nc1nc(-c2ccc(NC(=O)Nc3cccc(-c4csc(NC(=N)N)n4)c3)cc2)cs1 [TCMDC-139559],–,>25,1.43,25.00,1 (1: YES),–
CC(Cc1ccc(CNC(=O)NCc2ccc(CC(C)NCCc3cccc(Cl)c3)cc2)cc1)NCCc1cccc(Cl)c1 (stereo not drawn) [TCMDC-139648],0 (0: NO),–,–,–,–,HepG2 cytoxicity ([3]; value reported with the Pf GCT ATP screen): 4.18 µM; IC50 ([4]; TCAMS screen comparison): 0.61 µM; Unified cytotox ([5]; HepG2 cytotoxicity unified across the three screens): 4.18 µM
CC(C)CNCc1cccc(-c2cccc(CNCCCN3CCN(C)CC3)c2)c1.O=C(O)C(F)(F)F [TCMDC-140483],–,>25,1.56,25.00,1 (1: YES),–
CC(C)CNCc1cccc(-c2ccc(CN(CCCN3CCN(C)CC3)C(=O)CCC3CCCC3)cc2)c1.O=C(O)C(F)(F)F [TCMDC-140558],–,>25,0.7,25.00,1 (1: YES),–
